Literature values as cited in PubChem BioAssay AID1259409 (Chemical Carcinogenesis Research Information System (CCRIS), 2018).

System: rodent chemically induced tumor inhibition, incidence and multiplicity
Assay: CCRIS tumor inhibitor studies
Conditions: for outcome: Carcinogen: N-BUTYL-N-(4-HYDROXYBUTYL)NITROSAMINE [3817-11-6], Route [Inhibitor]: INTRAGASTRIC, Species: MOUSE, Strain/Sex: C57BL/6/FEMALE, Promoter: NONE; for tumour outcome (control, treated, inhibition, significance): Carcinogen: 7,12-DIMETHYLBENZ[A]ANTHRACENE, 57-97-6, Dose [Inhibitor]: 0, Route [Inhibitor]: ORAL, Species: RAT, Strain/Sex: SPRAGUE-DAWLEY/FEMALE, Target Tissue: Type of Lesion: MAMMARY GLAND: ADENOCARCINOMA, Dose [Carcinogen]: 10 MG ONCE AT 55 D OF AGE, Promoter: NONE USED

Row | SMILES | outcome (Dose [Inhibitor]: 10 MG ONCE/D FOR 1 WK BEGINNING 1 WK PRIOR TO FIRST CARCINOGEN DOSE (STUDY DURATION: 13 WK), Target Tissue: Type of Lesion: URINARY BLADDER: CARCINOMA IN SITU, Dose [Carcinogen]: 0.05% IN DRINKING WATER FOR 8 WK BEGINNING IMMEDIATELY POST LAST INHIBITOR DOSE (STUDY DURATION: 13 WK)) | outcome (Dose [Inhibitor]: 10 MG ONCE/D FOR 1 WK BEGINNING 1 WK PRIOR TO FIRST CARCINOGEN DOSE (STUDY DURATION: 13 WK), Target Tissue: Type of Lesion: URINARY BLADDER: INVASIVE CARCINOMA, Dose [Carcinogen]: 0.05% IN DRINKING WATER FOR 8 WK BEGINNING IMMEDIATELY POST LAST INHIBITOR DOSE (STUDY DURATION: 13 WK)) | outcome (Dose [Inhibitor]: 10 MG ONCE/D FOR 1 WK BEGINNING 1 WK PRIOR TO FIRST CARCINOGEN DOSE (STUDY DURATION: 17 WK), Target Tissue: Type of Lesion: URINARY BLADDER: CARCINOMA IN SITU, Dose [Carcinogen]: 0.05% IN DRINKING WATER FOR 8 WK BEGINNING IMMEDIATELY POST LAST INHIBITOR DOSE (STUDY DURATION: 17 WK)) | outcome (Dose [Inhibitor]: 10 MG ONCE/D FOR 1 WK BEGINNING 1 WK PRIOR TO FIRST CARCINOGEN DOSE (STUDY DURATION: 17 WK), Target Tissue: Type of Lesion: URINARY BLADDER: INVASIVE CARCINOMA, Dose [Carcinogen]: 0.05% IN DRINKING WATER FOR 8 WK BEGINNING IMMEDIATELY POST LAST INHIBITOR DOSE (STUDY DURATION: 17 WK)) | outcome (Dose [Inhibitor]: 10 MG ONCE/D FOR 1 WK BEGINNING 1 WK PRIOR TO FIRST CARCINOGEN DOSE (STUDY DURATION: 21 WK), Target Tissue: Type of Lesion: URINARY BLADDER: CARCINOMA IN SITU, Dose [Carcinogen]: 0.05% IN DRINKING WATER FOR 12 WK BEGINNING IMMEDIATELY POST LAST INHIBITOR DOSE (STUDY DURATION: 21 WK)) | outcome (Dose [Inhibitor]: 10 MG ONCE/D FOR 1 WK BEGINNING 1 WK PRIOR TO FIRST CARCINOGEN DOSE (STUDY DURATION: 21 WK), Target Tissue: Type of Lesion: URINARY BLADDER: INVASIVE CARCINOMA, Dose [Carcinogen]: 0.05% IN DRINKING WATER FOR 12 WK BEGINNING IMMEDIATELY POST LAST INHIBITOR DOSE (STUDY DURATION: 21 WK)) | outcome (Dose [Inhibitor]: 50 MG ONCE/D FOR 1 WK BEGINNING 1 WK PRIOR TO FIRST CARCINOGEN DOSE (STUDY DURATION: 13 WK), Target Tissue: Type of Lesion: URINARY BLADDER: CARCINOMA IN SITU, Dose [Carcinogen]: 0.05% IN DRINKING WATER FOR 8 WK BEGINNING IMMEDIATELY POST LAST INHIBITOR DOSE (STUDY DURATION: 13 WK)) | outcome (Dose [Inhibitor]: 50 MG ONCE/D FOR 1 WK BEGINNING 1 WK PRIOR TO FIRST CARCINOGEN DOSE (STUDY DURATION: 13 WK), Target Tissue: Type of Lesion: URINARY BLADDER: INVASIVE CARCINOMA, Dose [Carcinogen]: 0.05% IN DRINKING WATER FOR 8 WK BEGINNING IMMEDIATELY POST LAST INHIBITOR DOSE (STUDY DURATION: 13 WK)) | outcome (Dose [Inhibitor]: 50 MG ONCE/D FOR 1 WK BEGINNING 1 WK PRIOR TO FIRST CARCINOGEN DOSE (STUDY DURATION: 17 WK), Target Tissue: Type of Lesion: URINARY BLADDER: CARCINOMA IN SITU, Dose [Carcinogen]: 0.05% IN DRINKING WATER FOR 8 WK BEGINNING IMMEDIATELY POST LAST INHIBITOR DOSE (STUDY DURATION: 17 WK)) | outcome (Dose [Inhibitor]: 50 MG ONCE/D FOR 1 WK BEGINNING 1 WK PRIOR TO FIRST CARCINOGEN DOSE (STUDY DURATION: 17 WK), Target Tissue: Type of Lesion: URINARY BLADDER: INVASIVE CARCINOMA, Dose [Carcinogen]: 0.05% IN DRINKING WATER FOR 8 WK BEGINNING IMMEDIATELY POST LAST INHIBITOR DOSE (STUDY DURATION: 17 WK)) | outcome (Dose [Inhibitor]: 50 MG ONCE/D FOR 1 WK BEGINNING 1 WK PRIOR TO FIRST CARCINOGEN DOSE (STUDY DURATION: 21 WK), Target Tissue: Type of Lesion: URINARY BLADDER: CARCINOMA IN SITU, Dose [Carcinogen]: 0.05% IN DRINKING WATER FOR 12 WK BEGINNING IMMEDIATELY POST LAST INHIBITOR DOSE (STUDY DURATION: 21 WK)) | outcome (Dose [Inhibitor]: 50 MG ONCE/D FOR 1 WK BEGINNING 1 WK PRIOR TO FIRST CARCINOGEN DOSE (STUDY DURATION: 21 WK), Target Tissue: Type of Lesion: URINARY BLADDER: INVASIVE CARCINOMA, Dose [Carcinogen]: 0.05% IN DRINKING WATER FOR 12 WK BEGINNING IMMEDIATELY POST LAST INHIBITOR DOSE (STUDY DURATION: 21 WK)) | tumour outcome (control, treated, inhibition, significance) (2 PPM (AS SELENIUM) IN DIET BEGINNING 2 WK PRIOR TO CARCINOGEN DOSE AND CONTINUING FOR DURATION OF STUDY (STUDY DURAT) | tumour outcome (control, treated, inhibition, significance) (3 PPM (AS SELENIUM) IN DIET BEGINNING 2 WK PRIOR TO CARCINOGEN DOSE AND CONTINUING FOR DURATION OF STUDY (STUDY DURAT)
1 | CN1CCN(c2c(F)cc3c(=O)c(C(=O)O)cn(CCF)c3c2F)CC1 | 1, 0, not significant | 0, 0, not significant | 1, 0, not significant | 1, 0, not significant | 0, 1, not significant | 9, 6, not significant | 1, 0, not significant | 0, 0, not significant | 1, 0, not significant | 1, 0, not significant | 0, 2, not significant | 9, 5, not significant | – | –
2 | N#C[SeH] | – | – | – | – | – | – | – | – | – | – | – | – | 88%, 68%, 23%, not significant | 88%, 44%, 50%, p<0.05
